Laboratory results from PubChem BioAssay (NCI).
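Five compound concentrations were applied to cells in 96-well plates for 48 hours; endpoints were derived by simple linear interpolation of the resulting dose-response curve. At the TGI there is no net growth.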

Assays:
Experiment in all cases: NCI anticancer screen, dose series, 48 h
DU-145 prostate = tested on: DU-145 prostate
MDA-MB-435 = tested on: MDA-MB-435
PC-3 prostate = tested on: PC-3 prostate
SNB-19 CNS = tested on: SNB-19 CNS
HOP-62 NSCLC = tested on: HOP-62 NSCLC
U251 CNS = tested on: U251 CNS
SK-MEL-2 melanoma = tested on: SK-MEL-2 melanoma
RXF 393 renal = tested on: RXF 393 renal
SR leukemia = tested on: SR leukemia
UO-31 renal = tested on: UO-31 renal
OVCAR-8 ovarian = tested on: OVCAR-8 ovarian
MDA-N = tested on: MDA-N
T-47D breast = tested on: T-47D breast
COLO 205 colon = tested on: COLO 205 colon
KM12 colon = tested on: KM12 colon
HCC-2998 colon = tested on: HCC-2998 colon
MDA-MB-231 breast = tested on: MDA-MB-231 breast
UACC-257 melanoma = tested on: UACC-257 melanoma
NCI-H226 lung = tested on: NCI-H226 lung
HOP-92 NSCLC = tested on: HOP-92 NSCLC

| SMILES | TGI (DU-145 prostate) [µM] | TGI (MDA-MB-435) [µM] | TGI (PC-3 prostate) [µM] | TGI (SNB-19 CNS) [µM] | TGI (HOP-62 NSCLC) [µM] | TGI (U251 CNS) [µM] | TGI (SK-MEL-2 melanoma) [µM] | TGI (RXF 393 renal) [µM] | TGI (SR leukemia) [µM] | TGI (UO-31 renal) [µM] | TGI (OVCAR-8 ovarian) [µM] | TGI (MDA-N) [µM] | TGI (T-47D breast) [µM] | TGI (COLO 205 colon) [µM] | TGI (KM12 colon) [µM] | TGI (HCC-2998 colon) [µM] | TGI (MDA-MB-231 breast) [µM] | TGI (UACC-257 melanoma) [µM] | TGI (NCI-H226 lung) [µM] | TGI (HOP-92 NSCLC) [µM] |
| --- | --- | --- | --- | --- | --- | --- | --- | --- | --- | --- | --- | --- | --- | --- | --- | --- | --- | --- | --- | --- |
| O=c1cc(CNC2CC3CCC2C3)[nH]c(=O)[nH]1 (stereo not drawn) | > 100 | > 100 | > 100 | > 100 | > 100 | > 100 | > 100 | > 100 | > 100 | > 100 | > 100 | > 100 | > 100 | > 100 | > 100 | > 100 | > 100 | > 100 | – | – |
| C=C(CCC=C(C)C)C1CC=C(C)CC1 (stereo not drawn) | 71.1 | 35.7 | – | > 100 | 37.4 | 34.8 | 37.5 | 31.6 | – | 30.6 | > 100 | 37.9 | > 100 | 71.5 | 52.6 | – | 97.6 | > 100 | > 100 | – |
| N#Cc1c(-c2ccccc2)cc(-c2ccccc2)n(C2OCC(O)C(O)C2O)c1=S (stereo not drawn) | 49.3 | 45.2 | 29.4 | 89.7 | 64.7 | 30.4 | 62.3 | 35.6 | – | 54 | 43.7 | 55 | 26.6 | 56.9 | 27.2 | – | 23.9 | 75.4 | 35.9 | – |
| O=C(O)Cc1cccc2c(=O)c3cccc([N+](=O)[O-])c3[nH]c12 | > 100 | > 100 | > 100 | > 100 | > 100 | > 100 | > 100 | – | > 100 | > 100 | > 100 | > 100 | > 100 | 39.4 | > 100 | > 100 | > 100 | > 100 | – | > 100 |
| Cc1ccc(S(=O)(=O)N2CCN(S(=O)(=O)c3ccc(C)cc3)CCN(S(=O)(=O)c3ccc(C)cc3)Cc3cc(Br)c(Br)cc3CN(S(=O)(=O)c3ccc(C)cc3)CC2)cc1 | > 100 | > 100 | > 100 | > 100 | > 100 | > 100 | – | > 100 | > 100 | > 100 | > 100 | > 100 | > 100 | > 100 | > 100 | > 100 | 71.1 | > 100 | > 100 | 92.4 |
| C=CCNC(=O)CN(CC(=O)O)C1CCCCC1N(CC(=O)O)CC(=O)O (stereo not drawn) | > 100 | > 100 | > 100 | > 100 | > 100 | > 100 | – | > 100 | > 100 | > 100 | > 100 | > 100 | > 100 | > 100 | > 100 | > 100 | > 100 | > 100 | > 100 | > 100 |
| Cc1nc(N(C(C)C)C(C)C)c(C(C)C)o1 | > 100 | > 100 | > 100 | > 100 | > 100 | > 100 | – | > 100 | – | > 100 | > 100 | > 100 | > 100 | > 100 | > 100 | > 100 | > 100 | > 100 | > 100 | > 100 |
| CNC(=O)CCCNC(=O)CCCC(=O)OC | > 100 | > 100 | > 100 | > 100 | > 100 | > 100 | > 100 | – | – | > 100 | > 100 | > 100 | > 100 | > 100 | > 100 | > 100 | > 100 | > 100 | > 100 | > 100 |
| CC(=O)NCCCCN(CCCNC(C)=O)C(=O)OCc1ccccc1 | > 100 | > 100 | > 100 | – | > 100 | > 100 | > 100 | > 100 | – | > 100 | > 100 | > 100 | > 100 | > 100 | > 100 | > 100 | > 100 | > 100 | > 100 | > 100 |
| CCC(C)N1CN(c2ccccc2)C2(CCN(CCCSc3ccc(F)cc3)CC2)C1=O (stereo not drawn) | 10.1 | 11.7 | 19.4 | 19.7 | 4.74 | 13.7 | – | – | 46.7 | 6.61 | 21.5 | 10.7 | 10.2 | 3.47 | 15.2 | 4.22 | 1.1 | 7.37 | 17 | – |
| CCN1C[C@]2(C)CC[C@H](OC)C34C5C[C@@H]6[C@@H](OC)C[C@@](OC)(C5[C@H]6OCc5ccccc5)C(C13)[C@H](OC(C)=O)[C@@H]42 (stereo partly drawn) | > 100 | > 100 | > 100 | > 100 | > 100 | > 100 | > 100 | > 100 | > 100 | > 100 | > 100 | > 100 | > 100 | > 100 | > 100 | – | > 100 | > 100 | > 100 | > 100 |
| Cc1ccc(/C=C2\Cc3cc(C)c(C)cc3C2=O)c(C(=O)O)c1 | > 100 | – | > 100 | > 100 | > 100 | > 100 | > 100 | > 100 | > 100 | > 100 | > 100 | > 100 | > 100 | – | > 100 | > 100 | > 100 | > 100 | 89.1 | – |
| O=S(=O)(O)c1ccc2cc(N=Nc3c(O)ccc4ccccc34)ccc2c1 | > 100 | > 100 | > 100 | > 100 | > 100 | > 100 | > 100 | > 100 | > 100 | > 100 | > 100 | > 100 | > 100 | > 100 | > 100 | > 100 | – | > 100 | > 100 | > 100 |
